The NIST ThermoML archive (doi:10.1016/j.jct.2014.07.018)

Test: molar heat capacity at constant pressure
Settings: 101.33 kPa, Vacuum adiabatic calorimetry

CCCCn1cc[n+](C)c1.[I-] [1-butyl-3-methylimidazolium iodide]
molar heat capacity at constant pressure [J/K/mol]
Settings | Crystal | Liquid
239.7 K | – | 291.7
240 K | 206.3 | 291.7
240.03 K | 206.3 | –
240.46 K | – | 291.9
240.67 K | 206.7 | –
240.69 K | – | 291.9
241.59 K | 207.5 | –
241.7 K | – | 292.2
241.85 K | – | 292.2
242.01 K | 208 | –
242.65 K | 208.4 | –
242.68 K | – | 292.5
243.58 K | 209.1 | –
243.69 K | – | 292.7
243.99 K | 209.6 | –
244.04 K | – | 292.7
244.63 K | 210 | –
244.67 K | – | 293
245.57 K | 210.8 | –
245.96 K | 211.2 | –
246.6 K | 211.6 | –
247.55 K | 212.5 | –
247.93 K | 212.9 | –
248.56 K | 213.4 | –
249.54 K | 214.3 | –
249.7 K | – | 294.3
250 K | 214.6 | 294.4
250.52 K | 215.1 | –
251.69 K | – | 294.9
252.54 K | 217.2 | –
253.58 K | – | 295.4
254.59 K | 219.4 | –
255.48 K | – | 295.9
256.64 K | 221.7 | –
257.37 K | – | 296.5
258.69 K | 224.2 | –
259.26 K | – | 297.3
260 K | 223.4 | 297.4
260.73 K | 227 | –
261.15 K | – | 297.8
262.75 K | 230.3 | –
263.05 K | – | 298.3
264.77 K | 234 | –
264.94 K | – | 298.9
266.78 K | 238.1 | –
266.84 K | – | 299.7
267.43 K | – | 299.7
268.74 K | – | 300.2
268.77 K | 243.1 | –
269.42 K | – | 300.5
270 K | 232.6 | 300.6
270.64 K | – | 300.7
270.74 K | 249 | –
271.32 K | – | 301
272.7 K | 256.2 | –
273.22 K | – | 301.5
274.63 K | 266.1 | –
275.12 K | – | 302.3
276.52 K | 280.2 | –
277.02 K | – | 302.9
278.36 K | 295.7 | –
278.92 K | – | 303.4
280 K | 242.3 | 303.8
280.15 K | 317.2 | –
280.82 K | – | 303.9
281.86 K | 349.7 | –
282.72 K | – | 304.7
283.46 K | 398.1 | –
284.62 K | – | 305.2
284.92 K | 473.4 | –
286.2 K | 587.3 | –
286.52 K | – | 306
287.29 K | 773.4 | –
288.17 K | 1041 | –
288.42 K | – | 306.6
288.86 K | 1421 | –
289.4 K | 1917 | –
290 K | 252.5 | 307.1
290.32 K | – | 307.1
291.92 K | 254.5 | 307.8
292.23 K | – | 307.9
293.86 K | – | 308.4
294.13 K | – | 308.4
294.32 K | – | 308.7
295.68 K | – | 309
296.03 K | – | 309.2
296.1 K | – | 309.2
297.5 K | – | 309.8
297.89 K | – | 309.8
297.93 K | – | 309.8
298.15 K | – | 309.9
299.84 K | – | 310.6
300 K | – | 310.5
301.74 K | – | 311.1
303.65 K | – | 311.9
305.55 K | – | 312.4
307.45 K | – | 313.2
309.36 K | – | 313.8
310 K | – | 314.1
311.26 K | – | 314.6
313.17 K | – | 315.1
315.07 K | – | 315.9
316.98 K | – | 316.7
318.89 K | – | 317.2
320 K | – | 317.6
320.79 K | – | 318
322.7 K | – | 318.6
324.6 K | – | 319.4
326.51 K | – | 320.1
328.41 K | – | 320.7
330 K | – | 321.3
330.32 K | – | 321.5
332.22 K | – | 322
334.13 K | – | 322.8
336.03 K | – | 323.6
337.93 K | – | 324.4
339.84 K | – | 324.9
340 K | – | 325.1
341.74 K | – | 325.7
343.65 K | – | 326.5
345.55 K | – | 327.3
347.47 K | – | 327.9
349.37 K | – | 328.7
350 K | – | 328.9
351.28 K | – | 329.5
353.19 K | – | 330.3
355.09 K | – | 330.8
357 K | – | 331.6
358.91 K | – | 332.4
360 K | – | 332.9
360.81 K | – | 333.2
362.72 K | – | 334
364.62 K | – | 334.8
366.52 K | – | 335.3
368.43 K | – | 336.4
370 K | – | 336.9
